Assay results taken from PMC3763632, “Radiosynthesis and Radiotracer Properties of a 7-(2-[^18F]Fluoroethoxy)-6-methoxypyrrolidinylquinazoline for Imaging of Phosphodiesterase 10A with PET” (Pharmaceuticals, 2012).
Values joined by “and” are separate entries in the source; they are usually repeats but may differ in a detail not shown here. Identical values can stand only once. “Also recorded” adds a separate entry of the source.

Columns and labels:
[1] = Biodistribution after i.v. injection; type: in vivo, female CD-1 mice
Method: The organ distribution of [^18F]IV after i.v. injection was investigated in female CD-1 mice. Time-activity data for ^18F corresponding uptake in peripheral organs, in the brain and in particular in the striatum at 5, 30, 60 and 120 min p.i. are presented in Table 2.
Conscious mice received a tail-vein injection of about 300 kBq of [^18F]IV, dissolved in 200 µL isotonic saline. At 5, 30, 60 and 120 min p.i. animals (n = 3–6 per time) were anaesthetized, and blood and urine samples were taken. After sacrifice, organs of interest were removed, separated, weighed, and radioactivity was measured in a calibrated γ-counter (Wallac WIZARD, Perkin Elmer, Waltham, MA, USA). Striatum was dissected from the brain and investigated separately. The percentage of the injected dose per gram of wet tissue (% ID/g) was calculated by the quotient of tissue counts and initial dose counts, and weight of the tissue sample.

[2] = test system: PDE10A; experiment: Ex vivo autoradiography of mouse brain; type: in vivo, CD-1 mice; settings: 30 min p.i. of 100 MBq
Method: To determine the regional distribution of [^18F]IV in the brain in vivo, we also performed ex vivo autoradiography. In CD-1 mice brain, heterogeneous distribution of radioactivity was noticed at 30 min after [^18F]IV injection (Figure 5), but the localization of radioligand did neither correlate with the spatial distribution of PDE10A in the brain known from immunohistochemical and in vivo PET studies nor with the pattern of [^18F]IV binding in the brain in vitro (Figure 3A). […] The discrepancy in the pattern of [^18F]IV distribution between in vitro and ex vivo autoradiography most probably indicates off-target binding of the radiotracer in combination with to low target affinity. While the dissociation rate underlying low affinity towards PDE10A allows a detection in the closed system of an in vitro study, the dynamic processes in vivo make binding of [^18F]IV towards PDE10A non-detectable. […]
Ex vivo autoradiography on the distribution of [^18F]IV in mouse brain (n = 1) was performed on sagittal brain sections obtained at 30 min after i.v. injection of 100 MBq of [^18F]IV. […] After exposition to ^18F-sensitive storage phosphor screens for 60 min, image plates were analyzed using a bioimaging analyzer system (see above).

## COc1cc2c(N3CC[C@@H](Oc4cnc5ccccc5n4)C3)ncnc2cc1OCC[18F] [[^18F]IV, (R)-7-(2-[^18F]Fluoroethoxy)-6-methoxy-4-(3-(quinoxalin-2-yloxy)pyrrolidin-1-yl)quinazoline]
[1]; 30 min p.i., mice
  striatum-to-blood ratio: 1.0
[1]; 60 min p.i., mice
  striatum-to-blood ratio: 0.8
[1]; 120 min p.i., mice
  striatum-to-blood ratio: 0.8
[1]; control, 5 min p.i.
  18F uptake, Adrenals: 25.4 ± 5.87 % ID/g Wet Weight
  18F uptake, Bladder: 1.85 ± 0.39 % ID/g Wet Weight
  18F uptake, Blood: 1.88 ± 0.08 % ID/g Wet Weight
  18F uptake, Brain: 1.99 ± 0.21 % ID/g Wet Weight
  18F uptake, Colon: 0.55 ± 0.05 % ID/g Wet Weight
  18F uptake, Femurs: 2.00 ± 0.36 % ID/g Wet Weight
  18F uptake, Femurs (fl.) (flushed): 1.11 ± 0.32 % ID/g Wet Weight
  18F uptake, Gonads: 2.58 ± 0.46 % ID/g Wet Weight
  18F uptake, Heart: 4.01 ± 0.47 % ID/g Wet Weight
  18F uptake, Intestine: 13.5 % ID/g Wet Weight and 13.5 ± 4.15 % ID/g Wet Weight
  18F uptake, Kidneys: 7.65 ± 0.54 % ID/g Wet Weight
  18F uptake, Liver: 20.5 % ID/g Wet Weight and 20.5 ± 1.87 % ID/g Wet Weight
  18F uptake, Lungs: 4.01 ± 0.51 % ID/g Wet Weight
  18F uptake, Muscles: 1.75 ± 0.12 % ID/g Wet Weight
  18F uptake, Pancreas: 5.19 ± 0.42 % ID/g Wet Weight
  18F uptake, Plasma: 3.97 ± 1.41 % ID/g Wet Weight
  18F uptake, Spleen: 4.23 ± 0.51 % ID/g Wet Weight
  18F uptake, Stomach: 6.14 ± 2.04 % ID/g Wet Weight
  18F uptake, Striatum: 2.3 % ID/g Wet Weight and 2.32 % ID/g Wet Weight and 2.32 ± 0.49 % ID/g Wet Weight
  18F uptake, Thymus: 3.10 ± 0.45 % ID/g Wet Weight
  18F uptake, Urine: 56.4 % ID/g Wet Weight and 56.4 ± 105 % ID/g Wet Weight
[1]; control, 30 min p.i.
  18F uptake, Bladder: 3.51 ± 1.39 % ID/g Wet Weight
  18F uptake, Blood: 1.69 ± 0.38 % ID/g Wet Weight
  18F uptake, Brain: 1.54 ± 0.30 % ID/g Wet Weight
  18F uptake, Colon: 0.88 ± 0.44 % ID/g Wet Weight
  18F uptake, Femurs: 2.14 ± 1.13 % ID/g Wet Weight
  18F uptake, Femurs (fl.) (flushed): 0.67 ± 0.24 % ID/g Wet Weight
  18F uptake, Gonads: 3.94 ± 0.84 % ID/g Wet Weight
  18F uptake, Heart: 2.93 ± 0.71 % ID/g Wet Weight
  18F uptake, Intestine: 43.2 ± 21.9 % ID/g Wet Weight
  18F uptake, Kidneys: 5.34 ± 1.4 % ID/g Wet Weight
  18F uptake, Liver: 16.4 ± 4.00 % ID/g Wet Weight
  18F uptake, Lungs: 3.51 ± 1.26 % ID/g Wet Weight
  18F uptake, Muscles: 1.31 ± 0.32 % ID/g Wet Weight
  18F uptake, Pancreas: 3.14 ± 0.70 % ID/g Wet Weight
  18F uptake, Plasma: 2.87 ± 0.54 % ID/g Wet Weight
  18F uptake, Spleen: 2.85 ± 0.60 % ID/g Wet Weight
  18F uptake, Stomach: 15.8 ± 6.09 % ID/g Wet Weight
  18F uptake, Striatum: 1.69 ± 0.44 % ID/g Wet Weight
  18F uptake, Thymus: 2.61 ± 0.50 % ID/g Wet Weight
  18F uptake, Urine: 18.5 ± 16.8 % ID/g Wet Weight
[1]; control, 60 min p.i.
  18F uptake, Adrenals: 28.2 ± 11.4 % ID/g Wet Weight
  18F uptake, Bladder: 2.60 ± 0.78 % ID/g Wet Weight
  18F uptake, Blood: 1.45 ± 0.20 % ID/g Wet Weight
  18F uptake, Brain: 1.08 ± 0.26 % ID/g Wet Weight
  18F uptake, Colon: 1.08 ± 0.43 % ID/g Wet Weight
  18F uptake, Femurs: 2.95 ± 3.73 % ID/g Wet Weight
  18F uptake, Femurs (fl.) (flushed): 0.58 ± 0.42 % ID/g Wet Weight
  18F uptake, Gonads: 3.50 ± 1.22 % ID/g Wet Weight
  18F uptake, Heart: 2.16 ± 0.45 % ID/g Wet Weight
  18F uptake, Intestine: 42.8 % ID/g Wet Weight and 42.8 ± 33.5 % ID/g Wet Weight
  18F uptake, Kidneys: 4.29 ± 0.93 % ID/g Wet Weight
  18F uptake, Liver: 14.5 ± 4.54 % ID/g Wet Weight
  18F uptake, Lungs: 2.37 ± 0.62 % ID/g Wet Weight
  18F uptake, Muscles: 1.22 ± 0.28 % ID/g Wet Weight
  18F uptake, Pancreas: 2.77 ± 0.85 % ID/g Wet Weight
  18F uptake, Plasma: 2.59 ± 0.36 % ID/g Wet Weight
  18F uptake, Spleen: 2.30 ± 0.25 % ID/g Wet Weight
  18F uptake, Stomach: 12.6 ± 5.08 % ID/g Wet Weight
  18F uptake, Striatum: 1.14 ± 0.29 % ID/g Wet Weight
  18F uptake, Thymus: 2.08 ± 0.51 % ID/g Wet Weight
  18F uptake, Urine: 23.1 ± 9.31 % ID/g Wet Weight
[1]; control, 60 min p.i., single values, n = 2
  18F uptake, Skin: 1.45 % ID/g Wet Weight and 1.17 % ID/g Wet Weight
[1]; control, 120 min p.i.
  18F uptake, Adrenals: 19.3 ± 13.2 % ID/g Wet Weight
  18F uptake, Bladder: 1.62 ± 0.28 % ID/g Wet Weight
  18F uptake, Blood: 1.05 ± 0.10 % ID/g Wet Weight
  18F uptake, Brain: 0.77 ± 0.10 % ID/g Wet Weight
  18F uptake, Colon: 3.49 ± 2.41 % ID/g Wet Weight
  18F uptake, Femurs: 1.61 ± 0.35 % ID/g Wet Weight
  18F uptake, Femurs (fl.) (flushed): 1.15 ± 0.18 % ID/g Wet Weight
  18F uptake, Gonads: 1.64 ± 0.26 % ID/g Wet Weight
  18F uptake, Heart: 1.33 ± 0.20 % ID/g Wet Weight
  18F uptake, Intestine: 49.3 ± 8.03 % ID/g Wet Weight
  18F uptake, Kidneys: 2.13 ± 0.44 % ID/g Wet Weight
  18F uptake, Liver: 7.05 % ID/g Wet Weight and 7.05 ± 1.10 % ID/g Wet Weight
  18F uptake, Lungs: 1.46 ± 0.26 % ID/g Wet Weight
  18F uptake, Muscles: 0.66 ± 0.01 % ID/g Wet Weight
  18F uptake, Pancreas: 1.41 ± 0.07 % ID/g Wet Weight
  18F uptake, Plasma: 2.13 ± 0.80 % ID/g Wet Weight
  18F uptake, Spleen: 1.21 ± 0.24 % ID/g Wet Weight
  18F uptake, Stomach: 10.1 ± 5.96 % ID/g Wet Weight
  18F uptake, Striatum: 0.83 ± 0.10 % ID/g Wet Weight
  18F uptake, Thymus: 1.26 ± 0.07 % ID/g Wet Weight
  18F uptake, Urine: 30.9 % ID/g Wet Weight and 30.9 ± 8.06 % ID/g Wet Weight
[1]; mice, time not specified
  uptake of radioactivity in femur: ~ 2 % ID/g
  uptake of radioactivity in femur after removal of bone marrow: about 1 % ID/g
[2]
  accumulation in PDE10A-expressing brain regions (caudate putamen, olfactory tubercle, cerebellum): no target specific accumulation; also recorded: free of significant accumulation
